Assay: MAD study: safety and tolerability (TEAEs, laboratory safety tests)
Format: in vivo, human
Settings: for TEAE: Catheter site pain / TEAE: Diarrhea / TEAE: Ecchymosis / TEAE: Headache / TEAE: Infusion site extravasation / TEAE: Injection site erythema / TEAE: Injection site extravasation / TEAE: Injection site hemorrhage / TEAE: Injection site injury / TEAE: Injection site pain / TEAE: Medical device site erythema (erythema at the ECG patch sites) / TEAE: Nausea / TEAE: Phlebitis / TEAE: Scratch / TEAE: Vessel puncture site hemorrhage / Withdrawn due to AE / ≥1 TEAE / ≥1 drug-related TEAE / ≥1 serious TEAE: n = 6
Experimental: The MAD study consisted of three parts (Fig. 1). […] Participants were enrolled in two sequential cohorts (cohort 1, followed by cohort 2). […] Participants were also enrolled in two sequential cohorts (cohort 3, followed by cohort 4). […] A washout period of approximately 24 h between treatments was provided. A sentinel dosing strategy was employed in both studies. […] In all cohorts, escalation to the next dose occurred after a safety review of the previous cohort. In the MAD study, sentinel dosing was performed in part 3, wherein participants were evaluated for safety up to 24 h after administration of the first drug combination (or placebo) on day 3, prior to enrolling additional participants. Safety assessments included monitoring of AEs, laboratory safety tests (hematology, serum chemistry, and urinalysis), 12-lead ECG (discrete recordings and 24-h Holter recording), and vital signs (blood pressure, pulse rate, and body temperature). In the SAD study, safety assessments were performed predose at screening, at day 1, postdose periodically on days 1, 2, and 7 (follow-up), and at early withdrawal, if relevant. […] In the MAD study, safety assessments were done predose at screening, at day 2, postdose periodically on days 1, 2, 4, 7, and 8, on days 13 to 15 (follow-up), and at early withdrawal, if relevant. […] On all other days, a single predose sample was collected for pharmacokinetic evaluation prior to the morning infusion. Blood was collected into lithium-heparin tubes and stored at a nominal –80°C temperature until analysis.

[1] = MAD parts 1 and 2, 8,000 mg (single dose)

In the case of `NCCONC(=O)[C@@H]1CC[C@@H]2CN1C(=O)N2OS(=O)(=O)O` [Nacubactam], the “participants reporting AEs” value (MAD monotherapy phase (parts 1 and 2), 13 of the 24 participants) is reported as 54.2%, the “total number of AEs” value (MAD monotherapy phase (parts 1 and 2), 24 participants) is reported as 48 and the “TEAE: Catheter site pain” value (MAD parts 1 and 2, 1,000 mg) is reported as 1/1. For the same compound, the “TEAE: Diarrhea” value (MAD parts 1 and 2, 1,000 mg) was 0 n/E, the “TEAE: Ecchymosis” value (MAD parts 1 and 2, 1,000 mg) was 1/1 and the “TEAE: Headache” value (MAD parts 1 and 2, 1,000 mg) was 1/1. The “TEAE: Infusion site extravasation” value (MAD parts 1 and 2, 1,000 mg) was 1/1, the “TEAE: Injection site erythema” value (MAD parts 1 and 2, 1,000 mg) was 1/1 and the “TEAE: Injection site extravasation” value (MAD parts 1 and 2, 1,000 mg) was 0 n/E. The “TEAE: Injection site hemorrhage” value (MAD parts 1 and 2, 1,000 mg) was 0 n/E, the “TEAE: Injection site injury” value (MAD parts 1 and 2, 1,000 mg) was 0 n/E and the “TEAE: Injection site pain” value (MAD parts 1 and 2, 1,000 mg) was 0 n/E. For the same compound, the “TEAE: Medical device site erythema (erythema at the ECG patch sites)” value (“TEAE: Medical device site erythema” below) (MAD parts 1 and 2, 1,000 mg) was 0 n/E, the “TEAE: Nausea” value (MAD parts 1 and 2, 1,000 mg) was 0 n/E and the “TEAE: Phlebitis” value (MAD parts 1 and 2, 1,000 mg) was 0 n/E. For the same compound, the “TEAE: Scratch” value (MAD parts 1 and 2, 1,000 mg) was 0 n/E, the “TEAE: Vessel puncture site hemorrhage” value (MAD parts 1 and 2, 1,000 mg) was 0 n/E and the “Withdrawn due to AE” value (MAD parts 1 and 2, 1,000 mg) was 0 n. For the same compound, the “≥1 TEAE” value (MAD parts 1 and 2, 1,000 mg) was 4/8, the “≥1 drug-related TEAE” value (MAD parts 1 and 2, 1,000 mg) was 2/2 and the “≥1 serious TEAE” value (MAD parts 1 and 2, 1,000 mg) was 0 n. The “TEAE: Catheter site pain” value (MAD parts 1 and 2, 2,000 mg) was 0 n/E, the “TEAE: Diarrhea” value (MAD parts 1 and 2, 2,000 mg) was 0 n/E and the “TEAE: Ecchymosis” value (MAD parts 1 and 2, 2,000 mg) was 0 n/E. For the same compound, the “TEAE: Headache” value (MAD parts 1 and 2, 2,000 mg) was 0 n/E, the “TEAE: Infusion site extravasation” value (MAD parts 1 and 2, 2,000 mg) was 0 n/E and the “TEAE: Injection site erythema” value (MAD parts 1 and 2, 2,000 mg) was 0 n/E. The “TEAE: Injection site extravasation” value (MAD parts 1 and 2, 2,000 mg) was 1/1, the “TEAE: Injection site hemorrhage” value (MAD parts 1 and 2, 2,000 mg) was 0 n/E and the “TEAE: Injection site injury” value (MAD parts 1 and 2, 2,000 mg) was 0 n/E. The “TEAE: Injection site pain” value (MAD parts 1 and 2, 2,000 mg) was 0 n/E, the “TEAE: Medical device site erythema” value (MAD parts 1 and 2, 2,000 mg) was 0 n/E and the “TEAE: Nausea” value (MAD parts 1 and 2, 2,000 mg) was 0 n/E. For the same compound, the “TEAE: Phlebitis” value (MAD parts 1 and 2, 2,000 mg) was 0 n/E, the “TEAE: Scratch” value (MAD parts 1 and 2, 2,000 mg) was 0 n/E and the “TEAE: Vessel puncture site hemorrhage” value (MAD parts 1 and 2, 2,000 mg) was 0 n/E. For the same compound, the “Withdrawn due to AE” value (MAD parts 1 and 2, 2,000 mg) was 0 n, the “≥1 TEAE” value (MAD parts 1 and 2, 2,000 mg) was 2/3 and the “≥1 drug-related TEAE” value (MAD parts 1 and 2, 2,000 mg) was 2/2. For the same compound, the “≥1 serious TEAE” value (MAD parts 1 and 2, 2,000 mg) was 0 n, the “TEAE: Catheter site pain” value (MAD parts 1 and 2, 4,000 mg) was 0 n/E and the “TEAE: Diarrhea” value (MAD parts 1 and 2, 4,000 mg) was 0 n/E. The “TEAE: Ecchymosis” value (MAD parts 1 and 2, 4,000 mg) was 0 n/E, the “TEAE: Headache” value (MAD parts 1 and 2, 4,000 mg) was 1/1 and the “TEAE: Infusion site extravasation” value (MAD parts 1 and 2, 4,000 mg) was 0 n/E. For the same compound, the “TEAE: Injection site erythema” value (MAD parts 1 and 2, 4,000 mg) was 1/1, the “TEAE: Injection site extravasation” value (MAD parts 1 and 2, 4,000 mg) was 1/1 and the “TEAE: Injection site hemorrhage” value (MAD parts 1 and 2, 4,000 mg) was 2/2. The “TEAE: Injection site injury” value (MAD parts 1 and 2, 4,000 mg) was 2/2, the “TEAE: Injection site pain” value (MAD parts 1 and 2, 4,000 mg) was 3/3 and the “TEAE: Medical device site erythema” value (MAD parts 1 and 2, 4,000 mg) was 4/4. The “TEAE: Nausea” value (MAD parts 1 and 2, 4,000 mg) was 0 n/E, the “TEAE: Phlebitis” value (MAD parts 1 and 2, 4,000 mg) was 0 n/E and the “TEAE: Scratch” value (MAD parts 1 and 2, 4,000 mg) was 1/1. For the same compound, the “TEAE: Vessel puncture site hemorrhage” value (MAD parts 1 and 2, 4,000 mg) was 2/2, the “Withdrawn due to AE” value (MAD parts 1 and 2, 4,000 mg) was 0 n and the “≥1 TEAE” value (MAD parts 1 and 2, 4,000 mg) was 6/36. The “≥1 drug-related TEAE” value (MAD parts 1 and 2, 4,000 mg) was 3/3, the “≥1 serious TEAE” value (MAD parts 1 and 2, 4,000 mg) was 0 n and the “TEAE: Catheter site pain” value [1] was 0 n/E. For the same compound, the “TEAE: Diarrhea” value [1] was 0 n/E, the “TEAE: Ecchymosis” value [1] was 0 n/E and the “TEAE: Headache” value [1] was 0 n/E. For the same compound, the “TEAE: Infusion site extravasation” value [1] was 0 n/E, the “TEAE: Injection site erythema” value [1] was 0 n/E and the “TEAE: Injection site extravasation” value [1] was 0 n/E. For the same compound, the “TEAE: Injection site hemorrhage” value [1] was 0 n/E, the “TEAE: Injection site injury” value [1] was 0 n/E and the “TEAE: Injection site pain” value [1] was 0 n/E. For the same compound, the “TEAE: Medical device site erythema” value [1] was 0 n/E, the “TEAE: Nausea” value [1] was 0 n/E and the “TEAE: Phlebitis” value [1] was 0 n/E. For the same compound, the “TEAE: Scratch” value [1] was 0 n/E, the “TEAE: Vessel puncture site hemorrhage” value [1] was 0 n/E and the “Withdrawn due to AE” value [1] was 0 n. For the same compound, the “≥1 TEAE” value [1] was 1/1, the “≥1 drug-related TEAE” value [1] was 0 n/E and the “≥1 serious TEAE” value [1] was 0 n. The tolerability (all single doses up to 8,000 mg and multiple doses up to 4,000 mg q8h) was “well tolerated”, the “serious AEs” value (alone (50 to 8,000 mg) or coadministered with meropenem (2,000 mg each), both studies) was “no serious AEs were reported” and the “effect on kidney function” value (nacubactam alone, validated measures of renal function and exploratory urine kidney biomarkers) was “no significant effects on kidney function”.

Source: article PMC7179653 (Antimicrobial Agents and Chemotherapy, 2020)
